Test results from patent US12721836B2, “Alpha-methyl-L-tryptophan as an orally active drug for treating or preventing metabolic conditions” (Texas Tech University System, priority 2021, dated 2026).
Entries after “also recorded” stand apart in the source; their conditions may differ.

Experiments:
[1] = Body weight in Slc6a14-null male mice on high-fat diet (D- vs L-isomer); format: in vivo; details: Slc6a14-null male mice on HFD; 1 mg/ml in drinking water, one week
From the text: (§1) C57B16 mice and oblob (leptin-deficient) mice were from Jackson Laboratories (Bar Harbor, ME). Slc6a14-null mice (Slc6a14^y/− males and Slc6a14^−/− females) on C57BU/6 background were generated in Applicant's lab and have been used to assess the role of this transporter in breast cancer and colon cancer. Mice had free access to water and diet ad libitum. Age- and gender-matched mice were used in control groups (no treatment). Mice were fed a normal diet (ND) (50 IF/6F 5V5R, Labdiet, St. Louis, MO) or a high-fat diet (HFD; 55% calorie from fat) (TD93075; Teklad diets, Madison, WI). The protocol was approved by the Institutional Animal Care and Use Committee of the Texas Tech University Health Sciences Center, Lubbock, TX, USA (IACUC approval number: 15002 for breeding protocol and 18005 for experimental protocol).
Next, Applicant aimed to determine which isomer in the enantiomeric mixture of α-methyltryptophan elicited a weight-reducing effect. For this, Applicant used the Slc6a14-null male mice on a high-fat diet as a model of obesity. Applicant selected this mouse model of obesity for initial experiments because the weight-reducing effect of α-MT is independent of what the drug does to the transport function of Slc6a14.
Applicant administered the D- and L-isomers separately to these mice on a high-fat diet at a dose of 1 mg/ml in drinking water for one week. […]

[2] = Body weight in wild type male mice on normal or high-fat diet; format: in vivo
From the text: as §1
Administration of α-methyltryptophan to wild type mice on a high-fat diet would make the mice gain more weight as we found in Slc6a14-null male mice. The results turned out to be quite the opposite. When exposed to the drug for 1 week (2 mg/ml in drinking water; DL-enantiomeric mixture, α-MT), untreated wild type male mice on a high-fat diet gained weight whereas mice exposed to the drug lost weight (FIG. 1B). Since the deletion of Slc6a14 increased the weight gain whereas administration of α-MT to wild type mice decreased the weight gain, the effect of the drug on the body weight has little to do with its ability to block the transporter.
Next, Applicant examined the effect of α-MLT on the body weight in WT C57BL/6 male mice on a normal diet or a high-fat diet (55% calories from fat). The drug was given in drinking water (1 mg/ml). Both with the normal diet and the high-fat diet, mice gained weight when not treated with α-MLT (FIGS. 2A-B). […] This weight-reducing effect was evident with both diets.
(§2) When the drug was withdrawn, mice began to gain weight (FIG. 2B). At 4-weeks of drug exposure, circulating levels of glucose and leptin were measured. Blood glucose was higher in control (i.e., untreated) mice on the high-fat diet than in those on the normal diet (FIGS. 2C-2D). The same was true with leptin levels, which correspond to fat content (FIGS. 2C-2D).

[3] = Circulating glucose and leptin in wild type male mice; format: in vivo; details: WT male mice, ND or HFD (independent of diet); 4 weeks, 1 mg/ml in drinking water; 4-h fasting
Procedure: Animals were fasted for 4 h and blood was collected as described above. Blood samples were centrifuged at 1500×g for 20 min and the serum samples were collected and kept at −80° C. until analyzed. Leptin was measured using the mouse/rat Quantikine ELISA kit (MOB00B, R & D Systems, MN).
as §2
(§3) Applicant then performed glucose-tolerance test in control and α-MLT-treated (2-week treatment; 1 mg/ml in drinking water) mice which were fed the high-fat diet for 12 weeks. […] At the end of the experiment, mice were killed, and liver and abdominal fat pad were excised and weighed. Treatment with α-MLT reduced the weight of the liver and the abdominal fat (FIGS. 3C-D).

[4] = Intraperitoneal glucose tolerance test in wild type mice on high-fat diet; format: in vivo; details: WT mice fed HFD 12 weeks; 2-week treatment, 1 mg/ml in drinking water
Procedure: (§4) Intraperitoneal GTT was done in mice fasted for 4 h. Blood glucose was determined using the TRUE track blood glucose monitor (Trividia Health Inc, Fort Lauderdale, FL) at 0, 15, 30, 60, 90 and 120 min after i.p. injection of glucose (2 g/kg body weight).
as §3

[5] = Liver and abdominal fat pad weight in wild type mice on high-fat diet; format: in vivo; details: WT male mice on HFD; 1 mg/ml in drinking water
Procedure: as §3

[6] = Hepatic steatosis (Oil-red-O staining) in wild type mice on high-fat diet; format: in vivo; details: WT mice on HFD 14 weeks; treatment during last two weeks
Procedure: Liver tissue was excised and weighed immediately, snap-frozen in liquid nitrogen, and stored at −80° C. For Oil-red-O (ORO) staining, tissues were OCT embedded, frozen at −20° C., and cut, followed by staining. Slides made from formalin-fixed, paraffin-embedded liver blocks were stained with hematoxylin and eosin (H & E).
Wild type mice developed fatty liver when fed a high-fat diet for 14 weeks as evident from Oil-red-O staining of the liver sections for neutral lipids (FIG. 3E). […] In this experiment, mice were fed the high-fat diet for 12-weeks, after which the mice were divided into two groups, one with no α-MLT exposure and the other with α-MLT administration. The drug treatment was continued for two additional weeks, and all through the experiment, both groups were continuously fed the same high-fat diet.

[7] = Body weight and other parameters in wild type female mice; format: in vivo; details: 1 mg/ml in drinking water, 2 weeks
Procedure: The experiments described above were done with male mice. To see if α-MLT elicits a similar weight-loss effect in female mice, wild type female mice were exposed to α-MLT (1 mg/ml in drinking water) at 3 months of age. The untreated mice gained weight and α-MLT-exposed mice lost weight (FIG. 4A). At end of 2 weeks treatment, mice were killed and mammary fat pad and liver were excised and weighed. The weights of both tissues decreased in the treated mice (FIGS. 4B-C).

[8] = Body weight, food intake, glucose and glucose tolerance in oblob mice on normal diet; format: in vivo
Procedure: as §4
oblob mice are deficient in leptin and therefore obese even on a normal diet. […] Applicant used 12-week-old male oblob mice to evaluate the weight-reducing effect of α-MLT (1 mg/ml in drinking water). There was a gradual weight gain on a normal diet in control mice without the drug (FIG. 5A). In contrast, mice exposed to α-MLT lost weight. At the end of 3-week drug exposure, the reversibility of α-MLT effect was evaluated by withdrawing the drug. […] At the end of the three-week treatment with α-MLT, mice were killed and the weights of the liver and abdominal fat pad were determined.
Applicant also monitored food intake, blood glucose, and glucose tolerance in control mice and α-MLT-treated mice.

[9] = Serum metabolic panel (lipid profile, kidney and liver function) in wild type mice on high-fat diet; format: in vivo; details: WT mice on HFD, 1 mg/ml in drinking water, 4 weeks
Procedure: At the end of the experiment, mice were fasted for 4 h, and blood was collected via orbital sinus using local anesthesia proparacaine. Serum was prepared by centrifugation of the clotted blood, and used for metabolic panel. This was done at our Laboratory Animal Resources Center.
Applicant evaluated the serum profile for metabolites and enzymes to assess the impact of α-MLT (4 weeks treatment; 1 mg/ml in drinking water) in normal mice which were on the high-fat diet for three months prior to initiation of the drug treatment. These tests were designed to assess the function of the kidneys and liver.

[10] = rats; orally 150 mg/kg per day; cited from earlier work
[11] = oblob male mice on normal diet, 1 mg/ml in drinking water, three weeks
[12] = oblob mice on normal diet, three-week treatment

## C[C@@](N)(Cc1c[nH]c2ccccc12)C(=O)O [α-MDT, α-methyl-D-tryptophan, reference compound]
[1]
  weight-reducing effect (body weight): negligible effect

## CC(N)(Cc1c[nH]c2ccccc12)C(=O)O (racemic) [α-MT, α-methyl-DL-tryptophan]
[2]; wild type male mice on HFD, 2 mg/ml in drinking water, 1 week
  body weight gain/loss: lost weight

## C[C@](N)(Cc1c[nH]c2ccccc12)C(=O)O [α-MLT, α-methyl-L-tryptophan]
[2]; 1 mg/ml in drinking water
  onset of weight-reducing effect: within a day
[2]; WT C57BL/6 male mice on normal diet or high-fat diet (both diets), 1 mg/ml in drinking water
  body weight: decrease in body weight
[2]; upon withdrawal of the drug
  reversibility of effect on body weight: reversible
[1]
  weight-reducing effect (body weight): active as a weight-reducing agent
[3]
  circulating level of glucose: significant decrease
  circulating level of leptin: significant decrease
[4]
  glucose tolerance (i.p. GTT): better glucose tolerance
[5]
  weight of the abdominal fat: reduced
  weight of the liver: reduced
[6]
  hepatic steatosis (Oil-red-O neutral lipids): almost completely prevented
[7]
  blood glucose level: decreased
  body weight: lost weight
  liver weight: decreased
  mammary fat pad weight: decreased
  serum leptin level: decreased
[8]; 12-week-old male oblob mice on normal diet, 1 mg/ml in drinking water, 3 weeks
  body weight: lost weight; also recorded: decreased
[8]; oblob male mice on normal diet, 1 mg/ml in drinking water
  food intake: decreased food intake
[8]; [11]
  blood glucose: lower
  insulin sensitivity (glucose tolerance test): improved insulin sensitivity
[8]; [12]
  abdominal fat: significantly reduced
  liver weight: significantly reduced
[8]; oblob mice, drug withdrawn after 3-week exposure
  reversibility of effect on body weight: started gaining weight
[9]
  kidney function (blood urea nitrogen, creatinine): no evidence of compromise in kidney function
  liver function (bilirubin, AST): no compromise in liver function
[9]; mean ± S.E.M, N=5
  AST: 79.5 ± 16.3 U/I
  Albumin: 1.90 ± 0.04 g/dL
  BUN: 34.2 ± 2.6 mg/dL
  Creatinine: 0.30 ± 0.04 mg/dL
  Globulin: 2.35 ± 0.09 g/dL
  Total bilirubin: 0.6 ± 0.1 mg/dL
  Total protein: 4.25 ± 0.06 g/dL
  serum Cholesterol: 106 ± 3 mg/dL
  serum Triglycerides: 97 ± 17 mg/dL
[10]
  adverse effects: no noticeable adverse effects
